The source of these data is patent publication US11576914B2, “Drug for treating or preventing disorder caused by TGF-β signaling, and application thereof” (THE DOSHISHA, priority 2017, dated 2023).

For data set [1], the system named is Fuchs' endothelial corneal dystrophy patient-derived immortalized corneal endothelial cells. Description: Cell damage inhibitory effect on iFECD stimulated with TGF-β2 (phase contrast microscope). The data set is classed as cell-based, human. Here is the method: The medium was removed from the culture dish in which Fuchs' endothelial corneal dystrophy patient-derived immortalized corneal endothelial cells (hereinafter, referred to as disease model cells) were being cultured, and the cells were supplemented with 1×PBS (−) that was preheated to 37° C., and were washed. This operation was repeated twice. The cells were supplemented with 1×PBS (−) again and incubated for 5 minutes at 37° C. (5% CO2). After the PBS (−) was removed, the cells were supplemented with 0.05% Trypsin-EDTA (nacalai tesque, 32778-34) and incubated for 5 minutes at 37° C. (5% CO2). The cells were then suspended in a medium, and collected by centrifugation at 1500 rpm for 3 minutes. DMEM (nacalai tesque, 08456-36)+10% FBS (Biowest, S1820-500)+1% P/S (nacalai tesque, 26252-94) was used as the medium. The disease model cells were seeded in a 6-well plate at a rate of 1.5×10^5 cells per well and cultured at 37° C. (5% CO2) for 48 hours. DMEM+10% FBS+1% P/S was used as the medium.
After 48 hours, the medium was removed, and AKP-001, SB203580 (Cayman, 13067), PH-797804 (Selleck Chemicals, S2726) and VX-702 (Selleck Chemicals, 56005) were added to DMEM+2% FBS+1% P/S so that the final concentration was 0.01, 0.03, 0.1, 0.3, 1, 3, 10 and 30 μM, followed by culturing as 24-hour pretreatment. After 24 hours, the medium was removed, and AKP-001, 5B203580 (Cayman, 13067), PH-797804 (Selleck Chemicals, S2726), or VX-702 (Selleck Chemicals, S6005), together with 100 ng/ml Recombinant Human TGF-β2 (R&D systems, RND302-B2-002), were added to DMEM+2% FBS+1% P/S so that the final concentration was 0.01 μM, 0.03 μM, 0.1 μM, 0.3 μM, 1 μM, 3 μM, 10 μM, and 30 μM, followed by culturing for 24 hours. After 24 hours, cell damage was evaluated by observation with a phase contrast microscope. As a control, immortalized corneal endothelial cells that were not stimulated with TGF-β were used.

Data set [2] relates to corneal endothelium. Description: Histological analysis of the corneal endothelium after instillation. Type of data set: in vivo. An excerpt:
Rabbits were euthanized, and then their eyes were removed and histologically analyzed. Expression of markers related to corneal endothelial functions was confirmed by immunostaining. The sclerocornea fragments were fixed with 0.5% paraformaldehyde and then blocked with 1% bovine serum albumin. As primary antibodies, ZO-1 antibody (Life Technologies) and N-cadherin antibody (BD Biosciences), which are indicators of the barrier function of corneal endothelial cells, and Na^+/K^+-ATPase antibody (MILLIPORE), which is an indicator of pump functions, were added, followed by standing at 4° C. overnight. […] Further, nuclear staining was performed using DAPI (Dojindo). To observe the cell morphology, actin was stained using Phalloidin (Life Technologies). The stained sclerocornea fragments were mounted in slide glasses and observed using a confocal fluorescence microscope (TCS SPE, Leica).
In addition, rabbits were euthanized, and then their eyes were removed. To assess cell death, the sclerocornea fragments were stained with Annexin V (Zymed Laboratories) and PI (Zymed Laboratories), fixed with 0.5% paraformaldehyde, and nuclear stained with DAPI (Dojindo). The stained sclerocornea fragments were mounted in slide glass and observed using a confocal fluorescence microscope (TCS SPE, Leica). Staurosporine (10 μM, Merck Millipore) was administered into the anterior chamber of a rabbit eyeball, and after 24 hours, it was used as a positive control.

Data set [3] relates to Fuchs corneal endothelial dystrophy (FECD) model mice (Col8a2 Q455K/Q455K). Description: In vivo evaluation in FECD model mice. As to conditions: ophthalmic solution 0.1 mM, 1 mM, 10 mM, 2 μl twice daily, 3 months. The procedure: In the present example, mice having a type 8 collagen mutation (Col8a2^Q455K/Q455K) are used as Fuchs corneal endothelial dystrophy (FECD) model mice.
Grading of the severity of FECD was performed on the basis of corneal endothelium images prior to instillation testing, and FECD model mice aged 20-24 weeks with similar symptoms were used. The prepared AKP-001 ophthalmic solution (0.1 mM, 1 mM, and 10 mM) is instilled into the left and right eyes, 2 μl at a time, twice daily in the morning and evening for 45 mice. Otsuka Normal Saline (Otsuka Pharmaceutical Co., Ltd.) is used as a control. The instillation period is set to be 3 months, during which the person in charge of the experimentation carries out the experimentation in a blinded state regarding the AKP-001 ophthalmic solution and the control ophthalmic solution.
Prior to the start of the instillation testing, corneal endothelial images are observed with a contact corneal endothelial specular (KSSP slit-scanning wide-field contact specular microscope (Konan medical Inc., Hyogo, Japan)) to conduct grading. After starting the instillation testing, the corneal endothelial images of the mice are observed once every 4 weeks using the contact corneal endothelial specular to evaluate the effectiveness of the AKP-001 ophthalmic solution.

Structures are written as SMILES. Entries after “also recorded” stand apart in the source; their conditions may differ.

For `O=C(Cc1c(F)cccc1Cl)Nc1onc(-c2ccc(F)cc2)c1-c1ccncn1` [AKP-001, 5-[(2-chloro-6-fluorophenyl)acetylamino]-3-(4-fluorophenyl)-4-(4-pyrimidinyl)isoxazole], the “damage inhibitory effect for the corneal endothelial cells” value in data set [1] (0.01 μM) is “observed”. The “disorder in the corneal endothelial cells” value in data set [1] (0.1 μM, 0.3 μM, 1 μM and 3 μM, iFECD, pretreatment, TGF-β2 stimulation) is listed as “effectively suppressed”. In data set [1] (at sub-μM), the “cell damage inhibitory effect for the corneal endothelial cells” value is recorded as “exerted an inhibitory effect; also recorded: able to suppress cell damage”. In data set [2] (eyeball instilled 10 times), the N-cadherin immunostaining result was “Expression along the cell membrane”; the “Na+/K+-ATPase immunostaining” value is “Expression along the cell membrane”; the ZO-1 immunostaining entry was “Expression along the cell membrane”; the “actin staining, form of the corneal endothelium” value was “polygonal paving stones”. Moreover, the “Annexin V and PI staining (cell death)” value in data set [2] (rabbit, in vivo) is “Neither staining with Annexin V nor PI was observed”. Further, in data set [3], the “decrease in corneal endothelial cell density compared to the control” value was “suppressed” and the “percentage of the area of guttae compared to the control” value was “decreased”.
